{"source": "patent US20030125285A1", "about": "“Method of examining efficacy of therapy with nucleic acid” (priority 2001, published 2003)", "key": {"[1]": {"target": "T1, protein of SEQ ID NO: 1 (AK002169) (Homo sapiens, UniProt Q96SI9)", "T1 construct": "made in house", "T1 sequence (Q96SI9 183-672)": "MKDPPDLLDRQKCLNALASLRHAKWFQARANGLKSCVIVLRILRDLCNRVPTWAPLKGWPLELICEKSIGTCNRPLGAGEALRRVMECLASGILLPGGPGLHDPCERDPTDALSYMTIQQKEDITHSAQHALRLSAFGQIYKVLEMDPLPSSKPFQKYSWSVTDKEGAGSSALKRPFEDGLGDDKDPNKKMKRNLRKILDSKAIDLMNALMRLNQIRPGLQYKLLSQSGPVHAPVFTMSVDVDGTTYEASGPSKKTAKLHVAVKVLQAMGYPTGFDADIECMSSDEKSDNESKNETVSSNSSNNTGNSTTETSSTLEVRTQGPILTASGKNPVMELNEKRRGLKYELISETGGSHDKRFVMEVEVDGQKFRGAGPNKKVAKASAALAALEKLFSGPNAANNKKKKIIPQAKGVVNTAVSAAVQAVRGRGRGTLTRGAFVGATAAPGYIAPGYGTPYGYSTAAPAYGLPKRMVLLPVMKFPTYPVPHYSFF", "assay": "Detection of binding of radio-labeled poly(I)•poly(C) to phage cDNA library proteins on nitrocellulose membrane", "conditions": "[32P]-poly(I)•poly(C) 1 ng/ml-1 μg/ml, chain length 100-500 bp, 42° C., 5-6 hours", "protocol": "(§1) Detection of Binding Ability to Proteins of SEQ ID NO: 1-3\n(§2) (1) Each protein was synthesized by plating phages containing cDNA on a petri dish using human HeLa 5′-STRETCH PLUS cDNA library.\n(§3) (2) The synthesized protein was transferred to nitrocellulose membrane.\n(§4) (3) To the nitrocellulose membrane was added the following test solution containing poly(I)•poly(C) (chain length 100-500 bp) radio-labeled with [γ-^32P]ATP, and subjected to hybridization at 42° C., for 5-6 hours.\n(§5) 1 ng/ml-1 μg/ml [^32P]-poly(I)•poly(C)\n(§6) The nucleotide sequence of cDNA corresponding to the screened protein was determined with a sequencer to identify the screened protein."}, "[2]": {"target": "T2, protein of SEQ ID NO: 2 (human TAR RNA binding protein 2, TRBP2) (Homo sapiens, UniProt Q15633)", "T2 construct": "made in house", "T2 sequence (Q15633 1-366)": "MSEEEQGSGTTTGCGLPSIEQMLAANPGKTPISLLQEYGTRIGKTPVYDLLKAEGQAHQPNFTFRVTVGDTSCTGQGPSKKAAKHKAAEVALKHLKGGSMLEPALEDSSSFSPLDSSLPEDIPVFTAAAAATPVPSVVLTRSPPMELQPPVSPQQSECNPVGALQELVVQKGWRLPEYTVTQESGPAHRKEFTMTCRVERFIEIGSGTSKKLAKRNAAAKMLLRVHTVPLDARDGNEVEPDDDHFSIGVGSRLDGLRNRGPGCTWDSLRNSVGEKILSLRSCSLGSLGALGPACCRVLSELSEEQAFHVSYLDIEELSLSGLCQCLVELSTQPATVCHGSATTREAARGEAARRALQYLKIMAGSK", "assay": "Detection of binding of radio-labeled poly(I)•poly(C) to phage cDNA library proteins on nitrocellulose membrane", "conditions": "[32P]-poly(I)•poly(C) 1 ng/ml-1 μg/ml, chain length 100-500 bp, 42° C., 5-6 hours", "protocol": "as §1, §2, §3, §4, §5, §6"}, "[3]": {"target": "T3, protein of SEQ ID NO: 3 (human TRAL) (Homo sapiens, UniProt P14625)", "T3 construct": "made in house", "T3 sequence (P14625 22-803)": "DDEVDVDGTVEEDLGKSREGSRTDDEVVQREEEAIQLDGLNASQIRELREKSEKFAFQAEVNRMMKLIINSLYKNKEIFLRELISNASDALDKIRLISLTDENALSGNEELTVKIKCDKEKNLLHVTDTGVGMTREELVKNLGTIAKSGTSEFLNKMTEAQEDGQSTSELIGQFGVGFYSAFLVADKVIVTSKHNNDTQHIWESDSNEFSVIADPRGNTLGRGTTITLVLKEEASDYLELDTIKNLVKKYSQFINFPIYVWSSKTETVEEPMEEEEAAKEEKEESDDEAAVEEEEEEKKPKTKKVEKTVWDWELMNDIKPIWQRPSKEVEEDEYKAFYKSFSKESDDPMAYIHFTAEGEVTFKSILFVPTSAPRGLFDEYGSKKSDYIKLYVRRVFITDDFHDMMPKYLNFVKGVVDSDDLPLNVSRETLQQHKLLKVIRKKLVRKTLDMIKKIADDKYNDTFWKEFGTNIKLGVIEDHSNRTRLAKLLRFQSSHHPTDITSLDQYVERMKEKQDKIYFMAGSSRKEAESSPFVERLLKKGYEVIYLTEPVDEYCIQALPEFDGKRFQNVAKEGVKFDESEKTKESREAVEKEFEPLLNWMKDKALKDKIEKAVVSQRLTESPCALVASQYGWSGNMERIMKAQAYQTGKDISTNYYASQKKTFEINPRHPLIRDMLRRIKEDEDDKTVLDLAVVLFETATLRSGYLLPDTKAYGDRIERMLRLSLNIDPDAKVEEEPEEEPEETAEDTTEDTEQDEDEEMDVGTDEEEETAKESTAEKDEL", "assay": "Detection of binding of radio-labeled poly(I)•poly(C) to phage cDNA library proteins on nitrocellulose membrane", "conditions": "[32P]-poly(I)•poly(C) 1 ng/ml-1 μg/ml, chain length 100-500 bp, 42° C., 5-6 hours", "protocol": "as §1, §2, §3, §4, §5, §6"}, "HeLaS3 cancer cells": {"test_system": "HeLaS3 cancer cells", "conditions": "Cancer Research, 59, pp. 4325-4333 (1999); cited from earlier work"}, "A431 cancer cells": {"test_system": "A431 cancer cells", "conditions": "Cancer Research, 59, pp. 4325-4333 (1999); cited from earlier work"}, "HeLa cancer cells": {"test_system": "HeLa cancer cells", "conditions": "Cancer Research, 59, pp. 4325-4333 (1999); cited from earlier work"}, "SW620 cancer cells": {"test_system": "SW620 cancer cells", "conditions": "Cancer Research, 59, pp. 4325-4333 (1999); cited from earlier work"}}}
{"substance": "polyinosinic acid-polycytidylic acid [poly(I)•poly(C)]", "values": [{"measurement": "binding to protein of SEQ ID NO: 1", "setting": "[1]", "result": "bound"}, {"measurement": "binding to protein of SEQ ID NO: 2", "setting": "[2]", "result": "bound"}, {"measurement": "binding to protein of SEQ ID NO: 3", "setting": "[3]", "result": "bound"}, {"measurement": "efficacy against cancer cells", "setting": "HeLaS3 cancer cells", "result": "efficacious"}, {"measurement": "efficacy against cancer cells", "setting": "A431 cancer cells", "result": "efficacious"}, {"measurement": "efficacy against cancer cells", "setting": "HeLa cancer cells", "result": "inefficacious"}, {"measurement": "efficacy against cancer cells", "setting": "SW620 cancer cells", "result": "inefficacious"}]}
